According to patent publication US20070259087A1, “Antimicrobial Peptides” (Novozymes A/S, priority 2003, published 2007):

Tested on: E. coli TOP10
Type: cell-based
Details: end point OD450 after 14 hours, 37 degrees Celsius
Experimental: A range of synthetic antimicrobial polypeptides were expressed in E. coli TOP10 (Invitrogen) using arabinose as inducer, as disclosed in Example 1 of International patent application WO 00/73433 (with minor modifications). […] Briefly, fresh overnight cultures grown in RM medium containing 0.2% glucose and ampicillin (100 μg/ml) were diluted 300-fold into 150 microliter of RM containing 0.2% glycerol and ampicillin (100 μg/ml) and different concentrations of arabinose (0, 0.01% or 0.1%) in a microtiter plate and incubated at 37 degrees Celsius with vigorous shaking. The growth curve was monitored by measuring OD450 using a Bioscreen C Microbiology reader (Thermo Electron Corporation) at intervals of 30 minutes for 14 hours (see Invitrogen protocol of the pBAD/gill A, B and C vectors catalogue nos. V450-01 for buffer and media composition). The percentage of growth inhibition was calculated as the end point OD measurement of each sample divided by the end point OD measurement obtained from cells containing the control vector and multiplied by 100. The formula is the following: [formula] where “blank OD” corresponds to the OD of an empty well.

Sequence | Growth inhibition using 0.01% arabinose (%) | Growth inhibition using 0.1% arabinose (%)
GILNIIGRAVKTVLESIR (Synthetic antimicrobial peptide) [SEQ ID NO:25] | 97 | 99
GILNKLRKKLKRVLQRIL (Synthetic antimicrobial peptide) [SEQ ID NO:27] | 84 | 97
GILSKLKKAIKRILQDVLRWL (Synthetic antimicrobial peptide) [SEQ ID NO:43] | 82 | 99
GILSKLKKKAKNAVKMFCRWL (Synthetic antimicrobial peptide) [SEQ ID NO:46] | 92 | 96
GILSMLERRWSMYCSIFCRWL (Synthetic antimicrobial peptide) [SEQ ID NO:45] | 98 | 100
GLFRKLKKTIKRVLKHVP (Synthetic antimicrobial peptide) [SEQ ID NO:31] | 86 | 96
GLFRKLRKKVKKVLKHVL (Synthetic antimicrobial peptide) [SEQ ID NO:23] | 91 | 98
GLFSIIMRAVKKVWQRVR (Synthetic antimicrobial peptide) [SEQ ID NO:9] | 97 | 100
GLFSILKREIKRTFSNFYRWL (GLFSILKREIKRTFSMFYRWL; Synthetic antimicrobial peptide) [SEQ ID NO:41] | 86 | 99
GLFSLLRKTIKKVLQHIR (Synthetic antimicrobial peptide) [SEQ ID NO:32] | 91 | 99
GLFTKLRKATKRILEHVL (Synthetic antimicrobial peptide) [SEQ ID NO:3] | 81 | 87
GLLEKLRKALKRILQHVL (Synthetic antimicrobial peptide) [SEQ ID NO:12] | 91 | 97
GLLGKIRKEGRNFWRVFRRWL (GLLGKIRKEGRMFWRVFRRWL; Synthetic antimicrobial peptide) [SEQ ID NO:38] | 86 | 92
GLLGKLKKELKNVLEHIYRWL (Synthetic antimicrobial peptide) [SEQ ID NO:42] | 75 | 93
GLLGKLKRKIKKALEGIR (Synthetic antimicrobial peptide) [SEQ ID NO:35] | 96 | 99
GLLKTIRKKIKRVLKHVR (Synthetic antimicrobial peptide) [SEQ ID NO:4] | 96 | 99
GLLNKIKKTIKRAVQHVL (Synthetic antimicrobial peptide) [SEQ ID NO:18] | 76 | 92
GLLNKLKKNVKNIVQHILRWL (Synthetic antimicrobial peptide) [SEQ ID NO:40] | 77 | 95
GLLNKLKRALKKVVKHVR (Synthetic antimicrobial peptide) [SEQ ID NO:33] | 84 | 94
GLLRILKKKAKKALQHIL (Synthetic antimicrobial peptide) [SEQ ID NO:37] | 86 | 93
GLLRKIKMKAKKVLKNIL (Synthetic antimicrobial peptide) [SEQ ID NO:22] | 72 | 83
